Measurements: paper PMC11359296, “Poly(2-Deoxy-2-Methacrylamido-D-Glucose)-Based Complex Conjugates of Colistin, Deferoxamine and Vitamin B12: Synthesis and Biological Evaluation” (Pharmaceutics, 2024)
Counter-ions that a name gives are not always drawn. Values belong to the compound of their own block, whether it stands above or below them. Where a SMILES comes first, the peptide text is derived from it. Bridges are numbered along the chain shown (N, C = ends). [ ]: non-standard residue; d: D form. The star is where a group is joined. Octanoyl(6-Me) = CCC(C)CCCCC(=O)*; Dab = NCC[C@H](N)C(=O)O

Legend:
[1] = tested on: Human embryonic kidney cells (HEK 293); experiment: Cytotoxicity, MTT assay; format: cell-based; settings: HEK 293, MTT, 72 h, n = 6
Description: Human embryonic kidney cells (HEK 293) purchased from the Cell Culture Collection of the Institute of Cytology RAS (St. Petersburg, Russia) were used to study the cytotoxicity of the conjugates. HEK 293 cells were cultured at 37 °C in a humidified atmosphere containing 5% CO2 in modified Eagle’s nutrient medium (MEM, Gibco, Billings, MT, USA) containing 1% essential amino acids, 1% L-glutamine, 50 μg/mL streptomycin, 50 U/mL penicillin, and 10 vol% thermally inactivated fetal bovine serum (FBS, HyClone, Logan, UT, USA). A total of 10^4 cells/100 µL/well was seeded into an adhesive 96-well plate and cultured for 1 day. After that, the medium was removed, and 100 µL of MEM with various concentrations of the test conjugates (4–1000 μg/mL with respect to the CT content) was added to each well with cells and incubated for 72 h. […] After the removal of the supernatant, formazan crystals produced by the metabolically viable cells were dissolved in DMSO (50 μL/well) and transferred to clean wells, followed by measuring the absorbance of the solutions at 570 nm using a multiwell plate reader (ThermoFisher Multiskan Labsystems, Waltham, MA, USA).
(§1) In the case of the CT release and conjugate stability experiments, each assay was performed in three repeats. […] The cell permeability assay and antimicrobial activity were analyzed with n = 3 and 4, respectively. […]

[2] = Caco-2 cell permeability assay; format: in vitro ADME, human; settings: Caco-2 monolayer, 21 days culture, apical to basolateral; 0.5 mg/mL according to CT content in 0.01 M phosphate buffer pH 7.2; PBS basolateral; 2 h, sampled every 30 min; B12 by spectrophotometry, CT by HPLC; mean, n = 3; read-out: apparent permeability coefficient (Papp)
Description: (§2) The human colon adenocarcinoma cells (Caco-2) obtained from the Cell Culture Collection of the Institute of Cytology RAS (St. Petersburg, Russia) were used to study cell permeability. The study was carried out as described elsewhere. Briefly, Caco-2 cells were cultured in Dulbecco’s modified Eagle medium (DMEM, Biolot, St. Petersburg, Russia) containing L-glutamine, streptomycin/penicillin and 10% FBS in cell culture flasks (area 75 cm^2, Jet Biofil, Guangzhou, China) at 37 °C in a CO2 incubator under humidified conditions. The cultured cells were re-seeded into a new cell culture flask (1:6 ratio) when the cells reached 80–90% confluence. […] The vitamin B12 content and the content of B12-containing conjugates equivalent to vitamin B12 were determined spectrophotometrically, and the CT transferred to the lower chamber was determined by HPLC analysis as described in Section 2.2.2.
(§3) The Papp was calculated as follows:(2) Papp=dQ/dt∗1/A∗C0 where Papp is the apparent permeability coefficient (cm/s), dQ/dt is the permeation rate (µg/s), A is the area of the monolayer (0.3 sm^2), and C0 is the concentration of the test substance in the apical chamber at the initial time point (µg/mL).
as §1

[3] = pH 7.4 and 37 °C; cited from earlier work
Description: The stability results of PMAG(10)-(DFOA,CT) conjugates with hydrolyzable (aldimine) bonds and reduced aldimine bonds in different media are summarized in Table 4. It was shown that the release in the buffer and the simulated biorelevant medium was consistent. […] Under gastric conditions, the release after 2 h was 20–26%, whereas under intestinal conditions, a release of 6–12% was detected.

P. aeruginosa = settings: concentration range of 0.25–64 µg/mL; cited from earlier work
Source text: The antibacterial activity of free CT and its polymeric conjugates was examined against P. aeruginosa. […] When analyzing the results of the MIC values for the conjugates studied, the following trends can be distinguished.

Caco-2 monolayer = experiment: Caco-2 cell permeability assay; format: in vitro ADME, human; settings: 21 days culture, apical to basolateral, 0.5 mg/mL according to CT content in 0.01 M phosphate buffer pH 7.2, PBS basolateral, 2 h, sampled every 30 min, B12 by spectrophotometry, CT by HPLC, mean, n = 3
Description: as §2, §3, §1

Compound: CCC(C)CCCCC(=O)N[C@@H](CCN)C(=O)N[C@H](C(=O)N[C@@H](CCN)C(=O)N[C@H]1CCNC(=O)[C@H]([C@@H](C)O)NC(=O)[C@H](CCN)NC(=O)[C@H](CCN)NC(=O)[C@H](CC(C)C)NC(=O)[C@@H](CC(C)C)NC(=O)[C@H](CCN)NC1=O)[C@@H](C)O (stereo partly drawn) [CT, Polymyxin E (colistin, CT) sulfate salt] ({Octanoyl(6-Me)}-[Dab]T[Dab][Dab][Dab][dL]L[Dab][Dab]T; lactam 4-C; N-terminus assumed)
concentration up to which no toxicity was found ([1]; 4–1000 μg/mL with respect to the CT content): ≤ 250 µg/mL
cytotoxicity (in words) ([1]; at a concentration of 500 μg/mL (with respect to CT content)): moderate cytotoxicity
Papp A→B [2]: ~3 ×10⁻⁶ cm/s
half-life of CT [3]: 70 h

Compound: CC(=O)N(O)CCCCCNC(=O)CCC(=O)N(O)CCCCCNC(=O)CCC(=O)N(O)CCCCCN [DFOA, deferoxamine methanesulfonate salt]
antibacterial properties against P. aeruginosa (P. aeruginosa): Neither DFOA nor PMAG is known to possess antibacterial properties

apparent permeability coefficient (Papp) (Caco-2 monolayer): ~ 77 × 10^−6 cm/s
Compound: cyanocobalamin [vitamin B12]
